Data published in patent publication US20040072894A1, “Stable pharmaceutical formulation comprising a HMG-CoA reductase inhibitor” (priority 1998, published 2004).

Test: pH of pravastatin sodium crystals kept in normal air, nitrogen or carbon dioxide atmosphere
Assay type: physicochemical
Experimental: Another observation was that carbon dioxide from the air can irreversibly bind to the active substance and can cause a drop of pH. This is illustrated by the following experiment: 5 g of pravastatin sodium were dissolved in 30 ml of methanol, the pH was adjusted to 10 with 3% aqueous solution of NaOH. 400 ml of ethylacetate were added and the crystals of pravastatin sodium were formed. Crystals were filtered and dried and then put into three different atmospheres: normal air, nitrogen atmosphere and carbon dioxide atmosphere. In normal air and in the nitrogen atmosphere the pH remained the same during a period of 24 hours (normal air: 9.2, nitrogen: 9.5), but in the carbon dioxide atmosphere the pH dropped in the first two minutes from 9.2 to 6.9. After 12 minutes the pH was 6.6 and after 1 hour the pH was 6.5. After that, the pH remained constant. The third observation is that a sufficient stabilization of the active substance is already obtained at a pH of at least 7.0, but a beneficially high stability is effected at a pH of at least 8.0. We have noticed that at a pH below 8 the formation of lactone has occured and also the amount of other impurities has increased. The presence of humidity in the air and a carbon dioxide-rich atmosphere makes the negative effect of a low pH even stronger. This is illustrated by the following experiment: Pravastatin was dissolved in different buffers with the pH in a range between 7 and 11 (F=phosphate, C=citrate, B=borate). The occurrence of pravastatin in lactone form and the formation of different degradation products (impurities) was measured after 1, 5, 13 and 28 days.

CC[C@H](C)C(=O)O[C@H]1C[C@H](O)C=C2C=C[C@H](C)[C@H](CC[C@@H](O)C[C@@H](O)CC(=O)O)[C@H]21 [Pravastatin sodium, pravastatin sodium]
pH (carbon dioxide atmosphere, after 12 minutes): 6.6
pH (carbon dioxide atmosphere, after 1 hour): 6.5
pH (carbon dioxide atmosphere, after the first two minutes): 6.9
pH (carbon dioxide atmosphere, starting value): 9.2
pH (crystals in nitrogen atmosphere, remained the same during 24 hours): 9.5
pH (crystals in normal air, remained the same during 24 hours): 9.2
